Source: patent US6861236B2, “Export and modification of (poly)peptides in the lantibiotic way” (Applied Nanosystems B.V., priority 2002, dated 2005)

Test system: nisin sensitive strain
Assay: agar well (halo) assay for antibacterial activity
Assay type: cell-based
Details: Example 5: trypsin-treated ziptipped material/crude supernatant of E. coli SF120 with NisABTC
Procedure: The above ZIPTIPPED™ material and the crude supernatant is treated after outer membrane disruption with trypsin. This material is applied to the agar well assay to determine antibacterial activity.
Materials and methods. […] NZ9000+pNG-NisABTC were grown and induced. The supernatant is analyzed as in Example 1. Trypsin treated supernatant was subjected to the agar well assay by pouring the trypsinated supernatant in an agar well and overlaying with a nisin sensitive strain.
The mutation was checked by PCR and sequencing. The above-generated ΔNisP strain was grown overnight in M17 medium (Terzaghi and Sandine, 1975, Appl. Microbiol. 29: 807-813), diluted 100 fold and grown to OD600 equal to 0.4. […] After 1, 2 and 3 hours, more 0.2 mM pmsf, 0.2 mM TPCK are added and followed by overnight incubation. […] Elution and experiments a) and b).

nisin
antimicrobial activity in the agar well assay: antimicrobial activity
